US10508109B2 (priority 2015, dated 2019)
Counter-ions that a name gives are not always drawn. Like-named read-outs stand apart in the source and are kept apart here.

How the values were obtained:
[1] = system: A549; assay: Cell-based assay, anti-proliferative activity (Cell Counting Kit-8, 72 hours); conditions: Homo sapiens, read-out: A549 IC50
Outline: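 Cells were seeded in 96-well plates and exposed to candidate inhibitors. Cellular growth was then determined with the colorimetric kit, and IC50 values were calculated from the growth data.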

[2] = target: SUV39H2 (Homo sapiens (Human), UniProt Q9H5I1); assay: biochemical; format: biochemical; conditions: 3H-SAM 100 nM, H3 Histone Peptide 350 nM, room temperature 3 hours
Description: Assay buffer (4 μL) was added into all the wells, including test compound and control wells (except for Sinefungin control wells), using the Multidrop Combi. The plate was centrifuged at 1000 rpm for 1 min. […] SUV39H2 (8 μL, final conc: optimized for each lot of the enzyme based on specific activity) was added by using the Multidrop Combi. The assay plate was centrifuged at 1000 rpm for 1 min. Assay buffer was used as background control, and incubated at room temperature for 3 hours. The reaction was stopped with 20 μL of 2.5 mg/mL Streptavidin SPA beads (final conc. 50 μg/well) in buffer using the Multidrop Combi and centrifuged for 1 min. The plate was loaded into the Trilux-Microbeta counter and a delayed read of 10 hours was made. The radioactive signal was measured at 1 min/well. Sinefungin and the internal standard compound were used as tool compounds to determine assay performance.
• The following calculations were made using the obtained CPM raw data: Software used: XLFit from IDBS.
For each test plate the following results were calculated: • Average, Standard Deviation, and % CV of Background Controls • Average, Standard Deviation, and % CV of Positive Controls • Z′ value of the plate • IC50 values of standard and test compounds (in nM) • R^2 value of fitted concentration response curve • Hill slope coefficient of fitted concentration response curve • Signal to Noise Ratio

[3] = A549 cells, 72 hours exposure, Cell Counting Kit-8

SUV39H2, sequence (Q9H5I1 whole entry): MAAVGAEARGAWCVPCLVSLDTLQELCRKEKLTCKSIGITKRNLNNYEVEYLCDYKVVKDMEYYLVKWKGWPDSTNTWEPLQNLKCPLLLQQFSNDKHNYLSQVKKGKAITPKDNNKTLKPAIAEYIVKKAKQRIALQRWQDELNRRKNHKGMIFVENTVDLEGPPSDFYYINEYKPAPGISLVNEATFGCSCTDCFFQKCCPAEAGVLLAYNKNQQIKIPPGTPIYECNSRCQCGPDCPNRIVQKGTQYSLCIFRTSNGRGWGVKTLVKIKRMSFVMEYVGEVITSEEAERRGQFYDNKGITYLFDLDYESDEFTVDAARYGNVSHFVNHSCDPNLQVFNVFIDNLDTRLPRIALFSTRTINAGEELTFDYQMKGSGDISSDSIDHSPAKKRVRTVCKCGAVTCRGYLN

SMILES	IC50 [1, 3] [nM]	IC50 [2] [nM]	IC50 ([1]; A549, 72 h) [nM]
COc1cc(OC)c(-c2cn3ccc(N[C@H]4CC[C@@H](NCc5ccccc5)CC4)cc3n2)cc1Cl [Example 325, cis-N^1-benzyl-N^4-(2-(5-chloro-2,4-dimethoxyphenyl)imidazo[1,2-a]pyridin-7-yl)cyclohexane-1,4-diamine]	800	23.4	
COc1cc(OC)c(-c2cn3ccc(N[C@H]4CC[C@@H](NCc5ccc(F)cc5)CC4)cc3n2)cc1Cl [Example 326, cis-N^1-(2-(5-chloro-2,4-dimethoxyphenyl)imidazo[1,2-a]pyridin-7-yl)-N^4-(4-fluorobenzyl)cyclohexane-1,4-diamine]	660	20.3	
COc1cc(OC)c(-c2cn3ccc(N4CCN(c5cc(C)ccn5)CC4)cc3n2)cc1Cl [Example 327, 2-(5-chloro-2,4-dimethoxyphenyl)-7-(4-(4-methylpyridin-2-yl)piperazin-1-yl)imidazo[1,2-a]pyridine]		46.7	870
COc1cc(OC)c(-c2cn3ccc(N[C@H]4CC[C@H](NCc5ccc(C)cc5)CC4)cc3n2)cc1Cl [Example 328, (1r,4r)-N^1-(2-(5-chloro-2,4-dimethoxyphenyl)imidazo[1,2-a]pyridin-7-yl)-N^4-(4-methylbenzyl)cyclohexane-1,4-diamine (2,2,2-trifluoroacetate)]	360	60.5	
COc1cc(OC)c(-c2cn3ccc(N[C@H]4CC[C@@H](NCc5ccc(C)cc5)CC4)cc3n2)cc1Cl [Example 329, cis-N^1-(2-(5-chloro-2,4-dimethoxyphenyl)imidazo[1,2-a]pyridin-7-yl)-N^4-(4-methylbenzyl)cyclohexane-1,4-diamine]	780	38.8	
COc1cc(OC)c(-c2cn3ccc(N4CCN(c5ccnc(C#N)c5)CC4)cc3n2)cc1Cl [Example 330, 4-(4-(2-(5-chloro-2,4-dimethoxyphenyl)imidazo[1,2-a]pyridin-7-yl)piperazin-1-yl)picolinonitrile]	560	98	
COc1cc(OC)c(-c2cn3ccc(N4CCN(c5ccnc(NC6CC6)n5)CC4)cc3n2)cc1Cl [Example 331, 4-(4-(2-(5-chloro-2,4-dimethoxyphenyl)imidazo[1,2-a]pyridin-7-yl)piperazin-1-yl)-N-cyclopropylpyrimidin-2-amine]	820	56.9	
COc1cc(OC)c(-c2cn3ccc(N4CCN(c5ccnc(N6CCC(O)CC6)n5)CC4)cc3n2)cc1Cl [Example 332, 1-(4-(4-(2-(5-chloro-2,4-dimethoxyphenyl)imidazo[1,2-a]pyridin-7-yl)piperazin-1-yl)pyrimidin-2-yl)piperidin-4-ol]		21.6	910
COc1cc(OC)c(-c2cn3ccc(N4CCN(c5cnc(N6CCCC6)nc5)CC4)cc3n2)cc1Cl [Example 333, 2-(5-chloro-2,4-dimethoxyphenyl)-7-(4-(2-(pyrrolidin-1-yl)pyrimidin-5-yl)piperazin-1-yl)imidazo[1,2-a]pyridine]	720	62	
COc1cc(OC)c(-c2cn3ccc(N4CCN(c5cnc(N6CCOCC6)nc5)CC4)cc3n2)cc1Cl [Example 335, 4-(5-(4-(2-(5-chloro-2,4-dimethoxyphenyl)imidazo[1,2-a]pyridin-7-yl)piperazin-1-yl)pyrimidin-2-yl)morpholine]	690	68.5	
COc1cc(OC)c(-c2cn3ccc(N4CCN(Cc5ccncc5F)CC4)cc3n2)cc1Cl [Example 336, 2-(5-chloro-2,4-dimethoxyphenyl)-7-(4-((3-fluoropyridin-4-yl)methyl)piperazin-1-yl)imidazo[1,2-a]pyridine]	970	16.1	
COc1cc(OC)c(-c2cn3ccc(N[C@H]4CC[C@H](Nc5cncnc5)CC4)cc3n2)cc1Cl [Example 337, (1r,4r)-N^1-(2-(5-chloro-2,4-dimethoxyphenyl)imidazo[1,2-a]pyridin-7-yl)-N^4-(pyrimidin-5-yl)cyclohexane-1,4-diamine]	830	79.9	
COc1cc(OC)c(-c2cn3ccc(N4CCN(c5ccnc(N6CCC(N)CC6)n5)CC4)cc3n2)cc1Cl [Example 338, 1-(4-(4-(2-(5-chloro-2,4-dimethoxyphenyl)imidazo[1,2-a]pyridin-7-yl)piperazin-1-yl)pyrimidin-2-yl)piperidin-4-amine]	1200	17	
CNc1ncc(N2CCN(c3ccn4cc(-c5cc(Cl)c(OC)cc5OC)nc4c3)CC2)cn1 [Example 340, 5-(4-(2-(5-chloro-2,4-dimethoxyphenyl)imidazo[1,2-a]pyridin-7-yl)piperazin-1-yl)-N-methylpyrimidin-2-amine trifluoroacetate]	690	17.1	
COc1cc(OC)c(-c2cn3ccc(N4CCN(c5ccnc(N6CCNCC6)n5)CC4)cc3n2)cc1Cl [Example 341, 2-(5-chloro-2,4-dimethoxyphenyl)-7-(4-(2-(piperazin-1-yl)pyrimidin-4-yl)piperazin-1-yl)imidazo[1,2-a]pyridine]		23.4	740
COc1cc(OC)c(-c2cn3ccc(NC4CCN(Cc5ccc([N+](=O)[O-])o5)CC4)cc3n2)cc1Cl [Example 343, 2-(5-chloro-2,4-dimethoxyphenyl)-N-(1-((5-nitrofuran-2-yl)methyl)piperidin-4-yl)imidazo[1,2-a]pyridin-7-amine]	910	47.9	
COc1cc(OC)c(-c2cn3ccc(N4CCN(Cc5ccncc5Br)CC4)cc3n2)cc1Cl [Example 345, 7-(4-((3-bromopyridin-4-yl)methyl)piperazin-1-yl)-2-(5-chloro-2,4-dimethoxyphenyl)imidazo[1,2-a]pyridine]	850	35.4	
COc1cc(OC)c(-c2cn3ccc(N4CCN(c5ccnc(N6CCC(O)C6)n5)CC4)cc3n2)cc1Cl (centres unmarked) [Example 346, 1-(4-(4-(2-(5-chloro-2,4-dimethoxyphenyl)imidazo[1,2-a]pyridin-7-yl)piperazin-1-yl)pyrimidin-2-yl)pyrrolidin-3-ol]		15.3	590
COc1cc(OC)c(-c2cn3ccc(N[C@H]4CC[C@@H](N(C)Cc5ccccc5C)CC4)cc3n2)cc1Cl [Example 348, cis-N^1-(2-(5-chloro-2,4-dimethoxyphenyl)imidazo[1,2-a]pyridin-7-yl)-N^4-methyl-N^4-(2-methylbenzyl)cyclohexane-1,4-diamine bis(2,2,2-trifluoroacetate)]	750	31.2	
COc1cc(OC)c(-c2cn3ccc(N4CCN(c5ncc([N+](=O)[O-])cc5C#N)CC4)cc3n2)cc1Cl [Example 349, 2-(4-(2-(5-chloro-2,4-dimethoxyphenyl)imidazo[1,2-a]pyridin-7-yl)piperazin-1-yl)-5-nitronicotinonitrile]	610	14.9	
COc1cc(OC)c(-c2cn3ccc(N4CCN(c5cnc(N6CCC(N)CC6)nc5)CC4)cc3n2)cc1Cl [Example 350, 1-(5-(4-(2-(5-chloro-2,4-dimethoxyphenyl)imidazo[1,2-a]pyridin-7-yl)piperazin-1-yl)pyrimidin-2-yl)piperidin-4-amine]	680	7.35	
COc1cc(OC)c(-c2cn3ccc(N4CCN(c5ccnc(N6CCN(C)CC6)n5)CC4)cc3n2)cc1Cl [Example 351, 2-(5-chloro-2,4-dimethoxyphenyl)-7-(4-(2-(4-methylpiperazin-1-yl)pyrimidin-4-yl)piperazin-1-yl)imidazo[1,2-a]pyridine]	860	28.6	
